Experimental findings from the NIST ThermoML archive (doi:10.1016/j.fluid.2013.10.022) are described below.

For data set [1] the following is noted: 298.2 K; 101.33 kPa; Liquid; Vibrating tube method.
Data set [2] in a line: refractive index (Na D-line) (dimensionless). To be noted: 298.2 K; 101.33 kPa; Liquid; Standard Abbe refractometry.

Each structure is given as a SMILES string. Numbers after ± are expanded uncertainties.

What is called mass density is mass per unit of volume. Usually refractive index stands for the speed of light in vacuum divided by its phase velocity in the sample. As for `CCCCC(CC)CO` (configuration not stated) [2-ethyl-1-hexanol], the mass density in data set [1] is 830.22 ± 0.24 kg/m3. Also, the refractive index in data set [2] came out at 1.4293 ± 0.0008.
In the same order, the values of `CCCC(=O)O` [butanoic acid] are 952.68 ± 0.23 kg/m3 and 1.3977 ± 0.0008.
In the case of `CCCCCCCCO` [octan-1-ol], the mass density in data set [1] came out at 821.69 ± 0.24 kg/m3. Moreover, the refractive index in data set [2] amounted to 1.4276 ± 0.0008.
`O` [water]: the refractive index in data set [2] was 1.3324 ± 0.0008.
